Assay results from patent US8569295B2, “Bicyclic urea compounds” (Merck Patent GmbH, priority 2009, dated 2013).

Molecular target: T1, RON kinase (Homo sapiens, UniProt Q04912)
T1 construct: purchased Caliper Life Sciences
Experiment: RON kinase biochemical mobility shift assay (Caliper Desktop Profiler)
Conditions: RON kinase inhibition
Description: The Aurora assays described here are performed on two Caliper Life Sciences systems: the LC3000 and the Desktop Profiler. The RON kinase assays are performed on the Desktop Profiler only. These provide data on enzyme activity via measurement of the relative amounts of phosphorylated or unphosphorylated fluorescently labelled substrate peptide at the end of an enzymatic reaction. These different states of peptide are resolved by applying a potential difference across the sample. The presence of the charged phosphate group on the product (as opposed to the substrate) causes a different peptide mobility between the two peptides. This is visualized by excitation of the fluorescent label on the substrate and product peptides and represented as peaks within the analysis software.
The Desktop Profiler utilizes the same priniciple as the LC3000 for calculating percentage conversion of a substrate to product. Caliper Life Sciences provides proprietary flash frozen pre-made 384 well plates containing selected kinases. Each column in the 384 well plate contains a particular selected kinase. A second plate, the ‘substrate plate’ contains a mix of fluorescently labeled peptide substrate and ATP. These are arranged in columns so that transfer for substrate plate to enzyme plate provides the correct enzyme with the correct substrate/ATP concentration. Compounds are added to a thawed enzyme plate in the desired format, in single concentrations. Reactions are initiated by transfer of the substrate/ATP mix from the substrate plate. The enzyme plate is incubated for 90 minutes at 25 C. The reaction is stopped by addition of 70 ul of Stop Buffer (100 mM HEPES pH 7.5, 0.015% Brij-35, 10 mM EDTA (Sigma, E7889)).
Reading of the plate in the Profiler is identical to the LC3000, and the ratio between substrate and product peaks provides the activity of the enzyme in that well. This is best represented by a plate heat map which colors each well by percent inhibition as compared to positive and negative controls (no inhibitors and no ATP respectively).

T1 sequence (Q04912 25-1400): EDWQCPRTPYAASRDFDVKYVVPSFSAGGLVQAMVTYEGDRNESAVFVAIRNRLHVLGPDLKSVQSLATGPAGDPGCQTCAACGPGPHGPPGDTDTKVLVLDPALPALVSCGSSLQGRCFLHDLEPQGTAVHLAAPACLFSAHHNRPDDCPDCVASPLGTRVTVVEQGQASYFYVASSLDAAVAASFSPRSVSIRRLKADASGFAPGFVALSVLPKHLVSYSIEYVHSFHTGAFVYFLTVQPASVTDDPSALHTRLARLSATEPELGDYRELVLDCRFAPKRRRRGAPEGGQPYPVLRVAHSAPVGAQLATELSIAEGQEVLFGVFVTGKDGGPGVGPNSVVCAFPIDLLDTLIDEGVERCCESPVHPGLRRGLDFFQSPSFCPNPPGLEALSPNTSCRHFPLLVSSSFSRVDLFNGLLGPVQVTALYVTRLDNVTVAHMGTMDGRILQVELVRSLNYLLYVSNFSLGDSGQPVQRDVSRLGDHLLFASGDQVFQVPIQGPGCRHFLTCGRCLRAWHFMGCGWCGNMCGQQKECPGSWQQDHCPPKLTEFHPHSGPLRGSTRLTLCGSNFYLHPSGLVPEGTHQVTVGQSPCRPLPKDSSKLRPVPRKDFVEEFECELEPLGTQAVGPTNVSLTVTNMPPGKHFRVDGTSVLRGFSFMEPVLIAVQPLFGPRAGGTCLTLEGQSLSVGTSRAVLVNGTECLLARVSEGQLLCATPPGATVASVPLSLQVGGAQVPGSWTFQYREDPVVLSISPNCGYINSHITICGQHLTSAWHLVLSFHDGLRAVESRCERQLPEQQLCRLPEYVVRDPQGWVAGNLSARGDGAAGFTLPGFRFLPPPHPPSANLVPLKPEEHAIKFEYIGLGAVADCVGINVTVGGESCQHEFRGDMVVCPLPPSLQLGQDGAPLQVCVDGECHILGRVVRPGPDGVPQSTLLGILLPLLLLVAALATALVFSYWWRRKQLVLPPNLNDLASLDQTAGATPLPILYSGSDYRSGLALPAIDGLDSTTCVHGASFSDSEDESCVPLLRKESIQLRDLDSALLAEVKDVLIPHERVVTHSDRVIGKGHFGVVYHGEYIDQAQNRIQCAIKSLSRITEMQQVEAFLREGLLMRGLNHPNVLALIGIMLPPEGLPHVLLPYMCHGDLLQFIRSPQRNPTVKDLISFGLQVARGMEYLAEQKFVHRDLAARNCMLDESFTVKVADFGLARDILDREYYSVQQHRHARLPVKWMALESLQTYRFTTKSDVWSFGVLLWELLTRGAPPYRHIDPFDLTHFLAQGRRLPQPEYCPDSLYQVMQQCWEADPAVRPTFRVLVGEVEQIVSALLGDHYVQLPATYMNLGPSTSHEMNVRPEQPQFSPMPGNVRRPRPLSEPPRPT

Compound | IC50
O=C1NCc2c(Oc3ccc(NC(=O)c4cccn(-c5ccc(F)cc5)c4=O)cc3F)ccnc2N1 [Example 59, N-{3-fluoro-4-[(2-oxo-1,2,3,4-tetrahydropyrido[2,3-d]pyrimidin-5-yl)oxy]phenyl}-1-(4-fluorophenyl)-2-oxo-1,2-dihydropyridine-3-carboxamide] | < 10 nM
O=C(Nc1ccc(Oc2ccnc3c2CN(CC(F)(F)F)C(=O)N3)c(F)c1)c1cccn(-c2ccc(F)cc2)c1=O [Example 85, N-(3-fluoro-4-{[2-oxo-3-(2,2,2-trifluoroethyl)-1,2,3,4-tetrahydropyrido[2,3-d]pyrimidin-5-yl]oxy}phenyl)-1-(4-fluorophenyl)-2-oxo-1,2-dihydropyridine-3-carboxamide] | 10 to 100 nM
O=C1NCc2c(Oc3ccc(NC(=O)c4ccc(Br)cc4)cc3F)ccnc2N1 [Example 99, 4-bromo-N-{3-fluoro-4-[(2-oxo-1,2,3,4-tetrahydropyrido[2,3-d]pyrimidin-5-yl)oxy]phenyl}benzamide] | < 10 nM
Cc1cccc(C(=O)Nc2ccc(Oc3ccnc4c3CNC(=O)N4)c(F)c2)c1 [Example 97, N-{3-fluoro-4-[(2-oxo-1,2,3,4-tetrahydropyrido[2,3-d]pyrimidin-5-yl)oxy]phenyl}-3-methylbenzamide] | 10 to 100 nM
Cc1c(C(=O)Nc2ccc(Oc3ccnc4c3CNC(=O)N4)c(F)c2)c(=O)n(-c2ccccc2)n1CC(C)(C)O [Example 74, N-{3-fluoro-4-[(2-oxo-1,2,3,4-tetrahydropyrido[2,3-d]pyrimidin-5-yl)oxy]phenyl}-1-(2-hydroxy-2-methylpropyl)-5-methyl-3-oxo-2-phenyl-2,3-dihydro-1H-pyrazole-4-carboxamide] | 100 to 1000 nM
COc1cccc(C(=O)Nc2ccc(Oc3ccnc4c3CNC(=O)N4)c(F)c2)c1 [Example 96, N-{3-fluoro-4-[(2-oxo-1,2,3,4-tetrahydropyrido[2,3-d]pyrimidin-5-yl)oxy]phenyl}-3-methoxybenzamide] | 10 to 100 nM

The remaining lines, values ahead:

IC50 | Compound
100 to 1000 nM | CCN1Cc2c(Oc3ccc(NC(=O)Nc4c(-c5ccccc5)noc4C)cc3F)ccnc2NC1=O [Example 266, 1-[4-(3-Ethyl-2-oxo-1,2,3,4-tetrahydro-pyrido[2,3-d]pyrimidin-5-yloxy)-3-fluoro-phenyl]-3-(5-methyl-3-phenyl-isoxazol-4-yl)-urea]
10 to 100 nM | O=C(Nc1cccc(C(F)(F)F)c1)Nc1ccc(Oc2ccnc3c2CNC(=O)N3)c(F)c1 [Example 270, 1-[3-Fluoro-4-(2-oxo-1,2,3,4-tetrahydro-pyrido[2,3-d]pyrimidin-5-yloxy)-phenyl]-3-(3-trifluoromethyl-phenyl)-urea]
< 10 nM | CC(C)c1ccc(NC(=O)Nc2ccc(Oc3ccnc4c3CNC(=O)N4)c(F)c2)cc1 [Example 273, 1-[3-Fluoro-4-(2-oxo-1,2,3,4-tetrahydro-pyrido[2,3-d]pyrimidin-5-yloxy)-phenyl]-3-(4-isopropyl-phenyl)-urea]
100 to 1000 nM | O=C1NCc2c(Oc3ccc(NC(=O)c4cccn(-c5ccc(F)cc5)c4=O)nc3)ccnc2N1 [Example 283, 1-(4-Fluoro-phenyl)-2-oxo-1,2-dihydro-pyridine-3-carboxylic acid [5-(2-oxo-1,2,3,4-tetrahydro-pyrido[2,3-d]pyrimidin-5-yloxy)-pyridin-2-yl]-amide]
100 to 1000 nM | O=C(Nc1ccc(Oc2ccnc3c2CNC(=O)N3)c(F)c1)Nc1ccc(C(F)(F)F)cc1Cl [Example 274, 1-(2-Chloro-4-trifluoromethyl-phenyl)-3-[3-fluoro-4-(2-oxo-1,2,3,4-tetrahydro-pyrido[2,3-d]pyrimidin-5-yloxy)-phenyl]-urea]
100 to 1000 nM | O=C1NCc2c(Nc3ccc(OC(F)(F)F)c(Br)c3)ccnc2N1 [Example 195, 5-(3-Bromo-4-trifluoromethoxy-phenylamino)-3,4-dihydro-1H-pyrido[2,3-d]pyrimidin-2-one]
100 to 1000 nM | CCN1Cc2c(Oc3ccc(NC(=O)Nc4cc([N+](=O)[O-])ccc4F)cc3F)ccnc2NC1=O [Example 258, 1-[4-(3-Ethyl-2-oxo-1,2,3,4-tetrahydro-pyrido[2,3-d]pyrimidin-5-yloxy)-3-fluoro-phenyl]-3-(2-fluoro-5-nitro-phenyl)-urea]
